In brackets after ≈: the same amount, converted by molar mass.
Columns and labels:
[1] = Storage of form A at elevated temperature; assay type: physicochemical
[2] = Solubility and stability of form A in water; assay type: physicochemical; settings: 22±2° C.
Procedure: 104 mg of raltegravir sodium salt form A is suspended in 1.0 ml water and the suspension placed on a laboratory shaker at 22±2° C. for 24 hours at a rate of 400 rpm. After 24 hours shaking the suspension is filtered, the obtained solid investigated by powder X-ray diffraction, and the concentration in the liquid phase is determined by UV-vis spectroscopy.

Cc1nnc(C(=O)NC(C)(C)c2nc(C(=O)NCc3ccc(F)cc3)c(O)c(=O)n2C)o1 [form A, N-(4-fluorobenzyl)-5-hydroxy-1-methyl-2-(1-methyl-1-{[(5-methyl-1,3,4-oxadiazol-2-yl)carbonyl]amino}ethyl)-6-oxo-1,6-dihydropyrimidine-4-carboxamide]
thermal stability on storage [1]: without decomposition | solubility ([2]; 22 °C, thermodynamic from solid, suspended in water, 24 hours shaking, resulting pH 10.4, UV-vis, read-out: aqueous solubility (concentration in the liquid phase)): 47 ± 5 mg/mL (≈ 106 mM) | crystalline form of the solid after suspension in water (XRPD) ([2]; suspension in water, 24 hours): form A is retained | pH of the liquid phase ([2]; suspension in water, 24 hours): 10.4 | crystalline form of the solid after suspension in water (XRPD) ([2]; suspension in water, 24 hours, listed as raltegravir sodium salt form A): crystalline form A is retained
